Reference: article PMC12305662, “Fragment-Based Development of Small Molecule Inhibitors Targeting Mycobacterium tuberculosis Cholesterol Metabolism” (Journal of Medicinal Chemistry, 2025)

How the values were obtained:
[1] = molecular target: CYP144 (Mycobacterium tuberculosis, UniProt P9WPL1); conditions: fragment 1 mM, P450 4-6 µM; relative to DMSO (421 nm)
[2] = molecular target: CYP125 (Mycobacterium tuberculosis, UniProt P9WPP1); type: binding; conditions: fragment 1 mM, P450 4-6 µM; Soret shift relative to DMSO (393 nm)
[3] = molecular target: CYP142 (Mycobacterium tuberculosis, UniProt P9WPL5); conditions: fragment 1 mM, P450 4-6 µM; relative to DMSO (418.5 nm)
[4] = molecular target: CYP143 (Mycobacterium tuberculosis, UniProt P9WPL3); conditions: fragment 1 mM, P450 4-6 µM; relative to DMSO (416 nm)
[5] = molecular target: CYP126 (Mycobacterium tuberculosis, UniProt P9WPN9); conditions: fragment 1 mM, P450 4-6 µM; relative to DMSO (418 nm)
[6] = molecular target: CYP124 (Mycobacterium tuberculosis, UniProt P9WPP3); conditions: fragment 1 mM, P450 4-6 µM; relative to DMSO (419 nm)
[7] = molecular target: CYP121 (Mycobacterium tuberculosis, UniProt P9WPP7); conditions: fragment 1 mM, P450 4-6 µM; relative to DMSO (417 nm)
Chain of CYP121 (P9WPP7 whole entry, the tested form may be a part): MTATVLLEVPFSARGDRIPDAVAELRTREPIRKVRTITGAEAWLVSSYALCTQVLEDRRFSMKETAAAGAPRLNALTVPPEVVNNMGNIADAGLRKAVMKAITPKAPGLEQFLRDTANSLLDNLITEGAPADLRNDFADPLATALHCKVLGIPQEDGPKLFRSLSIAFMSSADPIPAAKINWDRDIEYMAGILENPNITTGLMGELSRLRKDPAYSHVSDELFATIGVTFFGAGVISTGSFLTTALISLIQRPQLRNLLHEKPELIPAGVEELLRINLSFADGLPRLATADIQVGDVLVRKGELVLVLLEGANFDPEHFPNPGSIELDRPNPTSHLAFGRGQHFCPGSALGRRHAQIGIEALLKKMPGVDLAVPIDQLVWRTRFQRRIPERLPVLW

Chain of CYP124 (P9WPP3 whole entry, the tested form may be a part): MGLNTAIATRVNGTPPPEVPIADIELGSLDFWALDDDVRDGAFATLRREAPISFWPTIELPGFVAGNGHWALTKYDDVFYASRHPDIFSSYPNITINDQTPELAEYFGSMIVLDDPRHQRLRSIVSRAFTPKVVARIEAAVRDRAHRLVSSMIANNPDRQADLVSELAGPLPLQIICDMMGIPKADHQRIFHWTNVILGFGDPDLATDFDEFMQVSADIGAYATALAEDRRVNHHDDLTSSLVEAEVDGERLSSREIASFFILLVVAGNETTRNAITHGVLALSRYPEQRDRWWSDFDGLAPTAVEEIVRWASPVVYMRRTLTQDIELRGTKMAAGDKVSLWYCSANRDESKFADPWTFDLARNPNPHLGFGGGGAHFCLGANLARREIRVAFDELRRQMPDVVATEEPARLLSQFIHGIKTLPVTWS
Chain of CYP142 (P9WPL5 whole entry, the tested form may be a part): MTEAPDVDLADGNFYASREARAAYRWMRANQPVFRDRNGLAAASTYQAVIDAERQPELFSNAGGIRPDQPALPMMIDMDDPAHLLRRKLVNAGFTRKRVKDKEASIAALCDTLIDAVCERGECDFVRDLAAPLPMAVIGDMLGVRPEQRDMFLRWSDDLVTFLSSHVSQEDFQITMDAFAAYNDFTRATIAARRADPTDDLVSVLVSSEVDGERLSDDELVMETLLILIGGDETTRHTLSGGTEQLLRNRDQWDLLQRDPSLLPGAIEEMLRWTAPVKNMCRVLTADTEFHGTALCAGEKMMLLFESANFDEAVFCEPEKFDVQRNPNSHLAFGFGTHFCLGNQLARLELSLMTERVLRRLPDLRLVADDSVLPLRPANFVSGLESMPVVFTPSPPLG
Chain of CYP144 (P9WPL1 whole entry, the tested form may be a part): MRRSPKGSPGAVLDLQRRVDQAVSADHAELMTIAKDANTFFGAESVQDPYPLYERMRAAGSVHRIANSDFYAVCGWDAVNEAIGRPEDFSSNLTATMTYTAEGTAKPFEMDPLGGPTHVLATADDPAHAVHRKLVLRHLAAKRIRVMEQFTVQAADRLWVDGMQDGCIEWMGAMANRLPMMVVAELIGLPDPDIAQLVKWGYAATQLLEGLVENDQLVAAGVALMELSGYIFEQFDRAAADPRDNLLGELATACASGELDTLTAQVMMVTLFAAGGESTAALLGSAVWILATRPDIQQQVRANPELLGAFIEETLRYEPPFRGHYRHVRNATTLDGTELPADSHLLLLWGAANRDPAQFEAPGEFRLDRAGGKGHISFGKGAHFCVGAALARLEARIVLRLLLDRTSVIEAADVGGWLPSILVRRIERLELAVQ
Chain of CYP126 (P9WPN9 whole entry, the tested form may be a part): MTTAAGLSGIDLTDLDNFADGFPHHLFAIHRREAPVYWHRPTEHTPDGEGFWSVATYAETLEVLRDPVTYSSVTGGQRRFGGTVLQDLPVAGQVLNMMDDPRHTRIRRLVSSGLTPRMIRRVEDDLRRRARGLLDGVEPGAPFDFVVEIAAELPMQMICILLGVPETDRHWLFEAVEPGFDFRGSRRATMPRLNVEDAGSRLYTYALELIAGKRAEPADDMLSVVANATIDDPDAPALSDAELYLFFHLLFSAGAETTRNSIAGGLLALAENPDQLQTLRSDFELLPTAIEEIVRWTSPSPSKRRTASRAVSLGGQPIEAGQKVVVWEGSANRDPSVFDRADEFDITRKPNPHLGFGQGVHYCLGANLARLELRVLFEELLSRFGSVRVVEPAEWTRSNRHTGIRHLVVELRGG
Chain of CYP125 (P9WPP1 whole entry, the tested form may be a part): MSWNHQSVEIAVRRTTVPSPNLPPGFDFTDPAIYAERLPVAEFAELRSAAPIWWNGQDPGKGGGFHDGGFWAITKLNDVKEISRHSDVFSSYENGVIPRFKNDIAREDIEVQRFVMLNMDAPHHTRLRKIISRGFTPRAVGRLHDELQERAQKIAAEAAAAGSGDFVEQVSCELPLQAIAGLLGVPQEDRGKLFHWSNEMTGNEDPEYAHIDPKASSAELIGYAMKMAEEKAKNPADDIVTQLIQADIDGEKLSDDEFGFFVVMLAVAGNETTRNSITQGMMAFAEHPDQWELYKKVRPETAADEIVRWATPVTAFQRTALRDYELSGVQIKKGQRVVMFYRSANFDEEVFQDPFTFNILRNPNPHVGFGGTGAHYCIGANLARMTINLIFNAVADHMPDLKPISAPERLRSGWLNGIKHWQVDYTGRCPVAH
Chain of CYP143 (P9WPL3 whole entry, the tested form may be a part): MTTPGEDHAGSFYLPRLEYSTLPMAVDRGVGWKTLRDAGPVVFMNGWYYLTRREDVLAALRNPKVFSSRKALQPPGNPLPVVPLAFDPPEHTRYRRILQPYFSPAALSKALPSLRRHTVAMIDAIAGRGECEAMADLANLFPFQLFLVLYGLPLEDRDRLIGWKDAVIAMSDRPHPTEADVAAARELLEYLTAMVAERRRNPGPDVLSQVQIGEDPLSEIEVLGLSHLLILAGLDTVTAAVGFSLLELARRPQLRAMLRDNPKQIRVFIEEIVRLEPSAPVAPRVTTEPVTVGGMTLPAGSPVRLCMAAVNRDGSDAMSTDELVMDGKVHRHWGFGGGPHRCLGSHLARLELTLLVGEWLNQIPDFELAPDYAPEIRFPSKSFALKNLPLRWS

SMILES | Δλmax (nm) CYP144, fragment screen [1] [nm] | Δλmax (nm) CYP125, fragment screen [2] [nm] | Δλmax (nm) CYP142, fragment screen [3] [nm] | Δλmax (nm) CYP143, fragment screen [4] [nm] | Δλmax (nm) CYP126, fragment screen [5] [nm] | Δλmax (nm) CYP124, fragment screen [6] [nm] | Δλmax (nm) CYP121, fragment screen [7] [nm]
O=C(O)c1ccnnc1 [compound 1] | 0 | 0 | 0 | 0.5 | 0 | 0 | -1
c1ccc(-c2ccn[nH]2)nc1 [compound 2] | 0 | 0 | 0 | 0 | 0 | 0 | 0
c1ccc(-c2ncc[nH]2)cc1 [compound 4] | 0 | 0 | 0 | 0 | 0 | 0 | 0
Nc1cccc(Cn2cncn2)c1 [compound 5] | 0 | 0 | 1.5 | 1 | 0 | 1 | 2
Cc1cc(N)n(-c2ccccc2)n1 [compound 6] | 0 | 0 | 0 | 0.5 | 0 | 0 | 0
Cc1ccc(=O)[nH]n1 [compound 7] | 0 | 0 | 0 | 0 | 0 | 0 | 0
OCc1ccc(-c2ccncc2)cc1 [compound 8] | 0 | 25 | 0 | 1 | 3 | 1 | 1
OCc1nccn1Cc1ccccc1 [compound 10] | 0 | 0 | 3 | 1 | 0 | 1 | 0
Cn1nc(-c2ccccc2)cc1N [compound 11] | 0 | 0 | 0 | -0.5 | 0 | 0 | 0
Nc1cc(-c2ccc(Cl)cc2)n[nH]1 [compound 12] | 0 | -2 | 0 | 0 | 1 | -1 | 2
NC1=NN(c2ccccc2)C(=O)C1 [compound 13] | 0 | 0 | 0 | 0 | 0 | -1 | 0
Cc1[nH]ncc1-c1ccccc1 [compound 14] | 0 | -2 | 1.5 | 0 | 0 | 3 | 0
Cc1cc(C)n(-c2ccc(N)cc2)n1 [compound 16] | 0 | 0 | 0 | 0.5 | 0 | 0 | -1
Cc1nn(-c2ccccc2)nc1C(=O)O [compound 18] | 0 | 0 | 0 | 0 | 0 | 0 | 0
